Test results reported in patent US7544687B2, “Substituted α-piperazinyl phenylpropionic acid derivatives as hPPAR α and/or hPPAR γ agonists” (Beijing Molecule Science and Technology Co., Ltd, priority 2004, dated 2009).

Legend:
[1] = molecular target: T1, Human PPARα (Homo sapiens, UniProt Q07869); assay: Activation of human PPARα, GAL4 chimeric receptor luciferase reporter assay in transiently transfected 293-T cells; format: cell-based; conditions: for Photon number (×10^4) / Increased multiple vs control: compounds 10 μM, PPARα; for Photon number (×10^4): luciferase 24 h after administration; for Increased multiple vs control: vs DMSO control
T1 construct: expressed in transfected cells; host or cells: 293-T cells, transient transfection
T1 sequence (Q07869 239-466 limits assumed): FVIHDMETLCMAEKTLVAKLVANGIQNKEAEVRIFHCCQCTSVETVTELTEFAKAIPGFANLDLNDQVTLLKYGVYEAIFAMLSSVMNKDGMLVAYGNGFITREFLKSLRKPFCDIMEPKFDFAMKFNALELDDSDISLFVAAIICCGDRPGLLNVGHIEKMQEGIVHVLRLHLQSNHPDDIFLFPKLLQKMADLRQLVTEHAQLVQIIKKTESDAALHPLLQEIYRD
Procedure: (§1) The compounds were screened with respect to their functional effect of instantaneous transfection in 293-T cells, so that their capabilities of activating PPAR subtypes were determined. A chimeric receptor system as established in advance was used to compare the influence of receptor subtypes on the transcription activity of same target gene. Human PPARα and PPARγ ligand-binding domains were fused respectively with yeast transcription factor GAL4 DNA-binding domains, and then linked to expression vector pM of mammal, to thereby construct two plasmids pM-hPPARα/GAL4 and pM-PPARγ/GAL4. GAL4 DNA-binding area was linked to pB4-tk-luc, to thereby construct pB4-RES-tk-luc (a firefly luciferase reporter gene comprising GAL4 DNA-binding site). pRL-CMV-Rluc was used as an internal control to normalize transfection efficiency and endogenous influence.
293-T cells were incubated in a 48-well plate at a cell density of 2-4×10^4/well, using a phenol red-free and antibiotic-free 1640 medium containing 10% defatted fetal calf serum (FCS). After culturing for 48 h, the medium was replaced with a phenol red-free and antibiotic-free 1640 medium containing 5% defatted FCS, and then three plasmids pM-hPPAR/GAL4, pB4-RES-tk-luc and pRL-CMV-Rluc pertaining to two subtypes were respectively co-transfected into the 293-T cells. The strength of luciferase was measured at the time of 24 h after administration, with 0.2% DMSO as a blank control.

[2] = molecular target: T2, Human PPARγ (Homo sapiens, UniProt P37231); assay: Activation of human PPARγ, GAL4 chimeric receptor luciferase reporter assay in transiently transfected 293-T cells; format: cell-based
T2 construct: expressed in transfected cells; host or cells: 293-T cells, transient transfection
T2 sequence (P37231 238-503 limits assumed): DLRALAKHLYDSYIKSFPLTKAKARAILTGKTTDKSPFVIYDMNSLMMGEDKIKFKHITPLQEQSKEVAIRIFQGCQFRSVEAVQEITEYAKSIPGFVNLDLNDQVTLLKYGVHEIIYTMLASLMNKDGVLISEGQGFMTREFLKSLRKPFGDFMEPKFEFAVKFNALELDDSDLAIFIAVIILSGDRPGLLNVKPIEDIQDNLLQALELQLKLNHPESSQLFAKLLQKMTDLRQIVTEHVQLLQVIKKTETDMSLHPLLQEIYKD
Excerpt: as §1, with “A” for “The compounds were screened with respect to their functional effect of instantaneous transfection in 293-T cells, so that their capabilities of activating PPAR subtypes were determined. A”
The strength of luciferase was measured at the time of 24 h after administration, with 0.2% DMSO as a blank control.

Structure (SMILES)	melting point [°C]	Photon number (×10^4) [1]	Increased multiple vs control [1]	further results
Cc1oc(-c2ccccc2)nc1CCOc1ccc(C[C@@H](C(=O)O)N2CCN(S(=O)(=O)c3ccccc3F)CC2)cc1 [Example 3, (2S)-2-[4-(2-fluoro-benzenesulfonyl)-piperazin-1-yl]-3-{4-[2-(5-methyl-2-phenyl-1,3-oxazol-4-yl)-ethoxy]-phenyl}-propionic acid]	170 to 172			
Cc1oc(-c2ccccc2)nc1CCOc1ccc(C[C@@H](C(=O)O)N2CCN(S(=O)(=O)c3ccc(F)cc3)CC2)cc1 [Example 4, (2S)-2-[4-(4-fluoro-benzenesulfonyl)-piperazin-1-yl]-3-{4-[2-(5-methyl-2-phenyl-1,3-oxazol-4-yl)-ethoxy]-phenyl}-propionic acid]	198 to 200	6.8 ×10^4	3.2	Photon number (×10^4) ([2]; compounds 10 μM, PPARγ, luciferase 24 h after administration): 2.8 ×10^4; Increased multiple vs control ([2]; compounds 10 μM, PPARγ, vs control): 2.0
Cc1cccc(N2CCN([C@@H](Cc3ccc(OCCc4nc(-c5ccccc5)oc4C)cc3)C(=O)O)CC2)c1 [Example 1, (2S)-3-{4-[2-(5-methyl-2-phenyl-1,3-oxazol-4-yl)-ethoxy]-phenyl}-2-(4-m-tolyl-piperazin-1-yl)-propionic acid]		11.3 ×10^4	5.3	
Cc1oc(-c2ccccc2)nc1CCOc1ccc(C[C@@H](C(=O)O)N2CCN(S(=O)(=O)c3ccccc3[N+](=O)[O-])CC2)cc1 [Example 6, (2S)-2-[4-(2-nitro-benzenesulfonyl)-piperazin-1-yl]-3-{4-[2-(5-methyl-2-phenyl-1,3-oxazol-4-yl)-ethoxy]-phenyl}-propionic acid]	171 to 173			EC50 ([1]; activation of PPARα): 1050 nM; EC50 ([2]; activation of PPARγ): 3200 nM

Continued, in another order:

melting point [°C]	Photon number (×10^4) [1]	Increased multiple vs control [1]	Structure (SMILES)	further results
218 to 220	13.2 ×10^4	6.3	Cc1oc(-c2ccccc2)nc1CCOc1ccc(C[C@@H](C(=O)O)N2CCN(c3ccccc3)CC2)cc1 [Example 8, (2S)-3-{4-[2-(5-methyl-2-phenyl-1,3-oxazol-4-yl)-ethoxy]-phenyl}-2-(4-phenyl-piperazin-1-yl)-propionic acid]	
220 to 222			Cc1oc(-c2ccccc2)nc1CCOc1ccc(C[C@@H](C(=O)O)N2CCN(c3ccccc3)CC2)cc1Br [Example 10, (2S)-3-{3-bromo-4-[2-(5-methyl-2-phenyl-1,3-oxazol-4-yl)-ethoxy]-phenyl}-2-(4-phenylpiperazin-1-yl)-propanoic acid]	
138 to 139			Cc1oc(-c2ccccc2)nc1CCOc1ccc(C[C@@H](C(=O)O)N2CCN(c3cccc(Cl)c3)CC2)cc1 [Example 7, (2S)-2-[4-(m-chloro-phenyl)-piperazin-1-yl]-3-{4-[2-(5-methyl-2-phenyl-1,3-oxazol-4-yl)-ethoxy]-phenyl}-propionic acid]	
